Assay results: ChEMBL document CHEMBL3885861, “Open TG-GATES”

Species on record: Rattus norvegicus
Test: Open TG-GATES - Regimen: Single
Type: toxicity, organism-based, Sprague-Dawley
Design: regimen Single, gender Male, age 6 weeks
Details: in vivo, po, route gavage; for Bas / Eos / Fbg / Hb / Ht / Lym / MCHC / MCV / Mono / Neu / RBC / Ret / WBC / Plat: tissue Blood; for KIDNEY_TOTAL: tissue Kidney; for LIVER: tissue Liver; for ALT / AST / BUN / CRE / Ca / Cl / DBIL / GLC / IP / K / LDH / Na / PL / RALB / TBIL / TC / TP / gamma-GTP: tissue Plasma
[1] = 0 mg/kg, 3 h, dose level Control
[2] = 0 mg/kg, 6 h, dose level Control
[3] = 0 mg/kg, 9 h, dose level Control
[4] = 0 mg/kg, 24 h, dose level Control

C[C@@H]1C[C@H]2[C@@H]3CCC4=CC(=O)C=C[C@]4(C)[C@@]3(F)[C@@H](O)C[C@]2(C)[C@@]1(O)C(=O)CO [DEXAMETHASONE]
TERMINAL_BW [1]: 213.8 g | Bas [1]: 0% | Eos [1]: 1% | Fbg [1]: 235.6 mg/dL | Hb [1]: 13 g/dL | Ht [1]: 39.6% | Lym [1]: 74.6% | MCHC [1]: 32.7% | MCV [1]: 64.5 fL | Mono [1]: 7% | Neu [1]: 18% | RBC [1]: 615 x10_4/ul | Ret [1]: 8.3% | WBC [1]: 98.2 x10_2/uL | KIDNEY_TOTAL [1]: 0.6 g | LIVER [1]: 10.5 g | ALT [1]: 38.4 IU/L | AST [1]: 70.4 IU/L | BUN [1]: 11.2 mg/dL | CRE [1]: 0.4 mg/dL | Ca [1]: 10.9 mg/dL | Cl [1]: 103.4 meq/L | DBIL [1]: 0.012 mg/dL | GLC [1]: 193.2 mg/dL | IP [1]: 9.8 mg/dL | K [1]: 4.1 meq/L | LDH [1]: 79.4 IU/L | Na [1]: 140.8 meq/L | PL [1]: 140.6 mg/dL | RALB [1]: 3.7 g/dL | TBIL [1]: 0.044 mg/dL | TC [1]: 79 mg/dL | TP [1]: 5.3 g/dL | gamma-GTP [1]: 0.8 IU/L | TERMINAL_BW [2]: 209.7 g | Bas [2]: 0% | Eos [2]: 0.6% | Fbg [2]: 234.6 mg/dL | Hb [2]: 13.3 g/dL | Ht [2]: 40.4% | Lym [2]: 80.6% | MCHC [2]: 32.9% | MCV [2]: 64.6 fL | Mono [2]: 4.4% | Plat [2]: 118.9 x10_4/uL | RBC [2]: 627.4 x10_4/ul | Ret [2]: 7.5% | WBC [2]: 103.8 x10_2/uL | KIDNEY_TOTAL [2]: 0.7 g | LIVER [2]: 9.7 g | ALT [2]: 34.2 IU/L | AST [2]: 65.2 IU/L | BUN [2]: 10.2 mg/dL | CRE [2]: 0.4 mg/dL | Ca [2]: 11 mg/dL | Cl [2]: 103.8 meq/L | DBIL [2]: 0.014 mg/dL | GLC [2]: 164.8 mg/dL | IP [2]: 9.5 mg/dL | K [2]: 4.3 meq/L | LDH [2]: 74.2 IU/L | Na [2]: 140.2 meq/L | PL [2]: 149.6 mg/dL | RALB [2]: 3.9 g/dL | TBIL [2]: 0.06 mg/dL | TC [2]: 84.8 mg/dL | TP [2]: 5.6 g/dL | gamma-GTP [2]: 0 IU/L | TERMINAL_BW [3]: 215.1 g | Bas [3]: 0% | Eos [3]: 1% | Fbg [3]: 233.2 mg/dL | Hb [3]: 13.2 g/dL | Ht [3]: 39.9% | Lym [3]: 73.2% | MCHC [3]: 33% | MCV [3]: 63.7 fL | Mono [3]: 7% | Neu [3]: 19% | Plat [3]: 125.1 x10_4/uL | RBC [3]: 626.8 x10_4/ul | Ret [3]: 7.8% | WBC [3]: 104.7 x10_2/uL | KIDNEY_TOTAL [3]: 0.7 g | LIVER [3]: 9.4 g | ALT [3]: 30.6 IU/L | AST [3]: 59.4 IU/L | BUN [3]: 11 mg/dL | CRE [3]: 0.3 mg/dL | Ca [3]: 10.5 mg/dL | Cl [3]: 104 meq/L | DBIL [3]: 0.01 mg/dL | GLC [3]: 171.4 mg/dL | IP [3]: 10.1 mg/dL | K [3]: 4.4 meq/L | LDH [3]: 80.4 IU/L | Na [3]: 140.8 meq/L | PL [3]: 141.8 mg/dL | RALB [3]: 3.8 g/dL | TBIL [3]: 0.046 mg/dL | TC [3]: 82.8 mg/dL | TP [3]: 5.5 g/dL | gamma-GTP [3]: 0.8 IU/L | TERMINAL_BW [4]: 229.3 g | Bas [4]: 0% | Eos [4]: 1% | Fbg [4]: 239.6 mg/dL | Hb [4]: 13.2 g/dL | Ht [4]: 40.1% | Lym [4]: 73.4% | MCHC [4]: 33% | MCV [4]: 65.6 fL | Mono [4]: 10.2% | Neu [4]: 15.6% | Plat [4]: 124.7 x10_4/uL | RBC [4]: 611.2 x10_4/ul | Ret [4]: 7.6% | WBC [4]: 107 x10_2/uL | KIDNEY_TOTAL [4]: 0.7 g | LIVER [4]: 11.3 g | ALT [4]: 40.6 IU/L | AST [4]: 67.2 IU/L | BUN [4]: 15.8 mg/dL | CRE [4]: 0.4 mg/dL | Ca [4]: 10.9 mg/dL | Cl [4]: 103 meq/L | DBIL [4]: 0.014 mg/dL | GLC [4]: 192.6 mg/dL | IP [4]: 8 mg/dL | K [4]: 4.4 meq/L | LDH [4]: 89.8 IU/L | Na [4]: 140 meq/L | PL [4]: 172.2 mg/dL | RALB [4]: 3.9 g/dL | TBIL [4]: 0.04 mg/dL | TC [4]: 95.4 mg/dL | TP [4]: 5.7 g/dL | gamma-GTP [4]: 0 IU/L | TERMINAL_BW (1 mg/kg, 3 h, dose level Low): 220.4 g
